What all share (type): functional
Assay [1] has as its system HCT-15. Nature of the assay: Antitumor activity against human HCT15 cells at 50 uM after 48 hrs by Sulforhodamine assay. Particulars: HCT-15, 48 h, read-out: GI.
Assay [2] has as its system IGROV-1. Nature of the assay: Antitumor activity against human IGROV1 cells at 50 uM after 48 hrs by Sulforhodamine assay. Particulars: IGROV-1, 48 h, read-out: GI.
Assay [3] concerns SW-620. Nature of the assay: Antitumor activity against human SW620 cells at 50 uM after 48 hrs by Sulforhodamine assay. The conditions noted are these: SW-620, 48 h, read-out: GI.
Assay [4] has as its system A549. The experiment in a line: Antitumor activity against human A549 cells at 50 uM after 48 hrs by Sulforhodamine assay. The conditions noted are these: A549, 48 h, read-out: GI.
Assay [5] deals with IMR-32. Nature of the assay: Antitumor activity against human IMR32 cells at 50 uM after 48 hrs by Sulforhodamine assay. Particulars: IMR-32, 48 h, read-out: GI.
Assay [6] relates to A549. Nature of the assay: Antitumor activity against human A549 cells at 10 uM after 48 hrs by Sulforhodamine assay. Particulars: A549, 48 h, read-out: GI.
For assay [7], the system named is IGROV-1. Nature of the assay: Antitumor activity against human IGROV1 cells at 10 uM after 48 hrs by Sulforhodamine assay. The conditions noted are these: IGROV-1, 48 h, read-out: GI.
For assay [8], the system named is IMR-32. Nature of the assay: Antitumor activity against human IMR32 cells at 1 uM after 48 hrs by Sulforhodamine assay. Particulars: IMR-32, 48 h, read-out: GI.
The test system of assay [9] is HCT-15. Nature of the assay: Antitumor activity against human HCT15 cells at 20 uM after 48 hrs by Sulforhodamine assay. Particulars: HCT-15, 48 h, read-out: GI.
In assay [10] the test system is SW-620. Nature of the assay: Antitumor activity against human SW620 cells at 20 uM after 48 hrs by Sulforhodamine assay. The conditions noted are these: SW-620, 48 h, read-out: GI.

The structures appear in SMILES notation.

In the case of `CC(=O)O[C@H]1C[C@H]2[C@H](C)CC[C@H]3[C@@H](C)C(=O)O[C@@H]4O[C@@]1(C)OO[C@]423`, the inhibition of growth at 50 µM came to 32% in assay [1]; 10% in assay [2]; 0% in [3]; 28% in assay [4]; 31% in assay [5].

For `CC(=O)O[C@H]1C(=O)[C@@]2(C)[C@H]([C@H](OC(=O)c3ccccc3)[C@]3(O)C[C@H](OC(=O)[C@H](O)[C@@H](NC(=O)c4ccccc4)c4ccccc4)C(C)=C1C3(C)C)[C@]1(OC(C)=O)CO[C@@H]1C[C@@H]2O` [PACLITAXEL], the figures for the inhibition of growth at 10 µM in assay [6] and in [7] were 52% and 56%, respectively.

Turning to `C[C@@H]1CC[C@H]2[C@@H](C)C(=O)O[C@@H]3O[C@@]4(C)CC[C@@H]1[C@]32OO4` [ARTEMISININ], the inhibition of growth at 50 µM in [1] amounted to 31%; in [2] it was 26%; in assay [3] it was 35%; in assay [4], 29%; in [5] it was 23%.

`C[C@@H]1CC[C@H]2[C@@H](C)C(=O)O[C@@H]3O[C@@]4(C)OO[C@@]32[C@H]1C[C@H]4O`: the inhibition of growth at 50 µM in assay [1] is 28%; in [2], 3%; in [3], 0%; in assay [4], 18%; in assay [5] it was 20%.

As to `COc1cccc2c1C(=O)c1c(O)c3c(c(O)c1C2=O)C[C@@](O)(C(=O)CO)C[C@@H]3O[C@H]1C[C@H](N)[C@H](O)[C@H](C)O1` [DOXORUBICIN], the inhibition of growth at 1 µM in assay [8] is 72%.

Regarding `O=c1[nH]cc(F)c(=O)[nH]1` [FLUOROURACIL], the figures for the inhibition of growth at 20 µM in [9] and in assay [10] were 49% and 54%, respectively.

These data come from ChEMBL document CHEMBL1153116, “Bio-transformation of artemisinin using soil microbe: Direct C-acetoxylation of artemisinin at C-9 by Penicillium simplissimum” (2010).
